Laboratory results as given in US20260125360A1, “HERBICIDAL IMIDAZOLE COMPOUNDS” (SYNGENTA CROP PROTECTION AG, priority 2022, published 2026).

What was measured:
Assay type in all cases: in vivo
Settings in all cases: 250 g/ha, evaluated after 13 days
[1] = system: Amaranthus palmeri (AMAPA); experiment: Post-emergence herbicide glasshouse test
Method in brief: (§1)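 Percentage plant damage, rated on a five-point scale (5=81-100%; 1=0-20%), is assessed 13 days after treatment. Sprays are applied at 250 g/ha unless otherwise stated, one day after sowing for pre-emergence and eight days after for post-emergence, from acetone/water (50:50) containing 0.5% Tween 20.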

[2] = system: Amaranthus retoflexus (AMARE); experiment: Post-emergence herbicide glasshouse test
Method in brief: as §1

[3] = system: Echinochloa crus-galli (ECHCG); experiment: Post-emergence herbicide glasshouse test
Method in brief: as §1

[4] = system: Ipomoea hederacea (IPOHE); experiment: Post-emergence herbicide glasshouse test
Method in brief: as §1

[5] = system: Amaranthus palmeri (AMAPA); experiment: Pre-emergence herbicide glasshouse test
Method in brief: as §1

[6] = system: Amaranthus retoflexus (AMARE); experiment: Pre-emergence herbicide glasshouse test
Method in brief: as §1

[7] = system: Echinochloa crus-galli (ECHCG); experiment: Pre-emergence herbicide glasshouse test
Method in brief: as §1

[8] = system: Ipomoea hederacea (IPOHE); experiment: Pre-emergence herbicide glasshouse test
Method in brief: as §1

| Structure (SMILES) | percentage damage caused to the plant, AMAPA (five-point scale) [1] | percentage damage caused to the plant, AMARE (five-point scale) [2] | percentage damage caused to the plant, ECHCG (five-point scale) [3] | percentage damage caused to the plant, IPOHE (five-point scale) [4] | percentage damage caused to the plant, AMAPA (five-point scale) [5] | percentage damage caused to the plant, AMARE (five-point scale) [6] | percentage damage caused to the plant, ECHCG (five-point scale) [7] | percentage damage caused to the plant, IPOHE (five-point scale) [8] |
| --- | --- | --- | --- | --- | --- | --- | --- | --- |
| FC(F)(F)c1cn(Cc2cc(C3CC3)no2)c(-c2ccc(Cl)nc2)n1 [Compound 1.134] | 5 (5=81-100%) | 5 (5=81-100%) | 2 (2=21-40%) | 4 (4=61-80%) | 5 (5=81-100%) | 5 (5=81-100%) | 3 (3=41-60%) | 4 (4=61-80%) |
| CC(C)(C)c1csc(Cn2cc(C(F)(F)F)nc2-c2ccc(Cl)nc2)n1 [Compound 1.137] | 1 (1=0-20%) | 1 (1=0-20%) | 1 (1=0-20%) | 1 (1=0-20%) | 1 (1=0-20%) | 1 (1=0-20%) | 1 (1=0-20%) | 1 (1=0-20%) |
| FC(F)(F)c1cn(Cc2nc(C3CC3)no2)c(-c2ccc(Cl)nc2)n1 [Compound 1.138] | 1 (1=0-20%) | 1 (1=0-20%) | 1 (1=0-20%) | 2 (2=21-40%) | 3 (3=41-60%) | 3 (3=41-60%) | 1 (1=0-20%) | 2 (2=21-40%) |
| CC(C)c1noc(Cn2cc(C(F)(F)F)nc2-c2ccc(Cl)nc2)n1 [Compound 1.139] | 1 (1=0-20%) | 1 (1=0-20%) | 1 (1=0-20%) | 1 (1=0-20%) | 1 (1=0-20%) | 1 (1=0-20%) | 1 (1=0-20%) | 1 (1=0-20%) |
| CCCn1nnnc1Cn1cc(C(F)(F)F)nc1-c1ccc(Cl)nc1 [Compound 1.140] | 1 (1=0-20%) | 1 (1=0-20%) | 1 (1=0-20%) | 1 (1=0-20%) | 1 (1=0-20%) | 1 (1=0-20%) | 1 (1=0-20%) | 1 (1=0-20%) |
| Cc1noc(C)c1Cn1cc(C(F)(F)F)nc1-c1ccc(Cl)nc1 [Compound 1.141] | 1 (1=0-20%) | 1 (1=0-20%) | 1 (1=0-20%) | 1 (1=0-20%) | 1 (1=0-20%) | 1 (1=0-20%) | 1 (1=0-20%) | 1 (1=0-20%) |
| CN(C)S(=O)(=O)c1cc(Cn2cc(C(F)(F)F)nc2-c2ccc(Cl)nc2)co1 [Compound 1.144] | 1 (1=0-20%) | 1 (1=0-20%) | 1 (1=0-20%) | 1 (1=0-20%) | 1 (1=0-20%) | 1 (1=0-20%) | 1 (1=0-20%) | 1 (1=0-20%) |
| Cc1cc(Cn2cc(C(F)(F)F)nc2-c2ccc(Cl)nc2)n(C)n1 [Compound 1.147] | 2 (2=21-40%) | 3 (3=41-60%) | 1 (1=0-20%) | 3 (3=41-60%) | 2 (2=21-40%) | 2 (2=21-40%) | 1 (1=0-20%) | 4 (4=61-80%) |
| FC(F)(F)c1cn(Cc2sc(Cl)nc2Cl)c(-c2ccc(Cl)nc2)n1 [Compound 1.148] | 1 (1=0-20%) | 1 (1=0-20%) | 1 (1=0-20%) | 1 (1=0-20%) | 1 (1=0-20%) | 1 (1=0-20%) | 1 (1=0-20%) | 1 (1=0-20%) |
| FC(F)(F)c1cn(Cc2cnc(Cl)s2)c(-c2ccc(Cl)nc2)n1 [Compound 1.150] | 1 (1=0-20%) | 1 (1=0-20%) | 1 (1=0-20%) | 1 (1=0-20%) | 2 (2=21-40%) | 2 (2=21-40%) | 1 (1=0-20%) | 1 (1=0-20%) |
| Cc1noc(Cn2cc(C(F)(F)F)nc2-c2cnc(F)c(Cl)c2)n1 [Compound 1.151] | 5 (5=81-100%) | 5 (5=81-100%) | 3 (3=41-60%) | 4 (4=61-80%) | 5 (5=81-100%) | 5 (5=81-100%) | 3 (3=41-60%) | 5 (5=81-100%) |
| Fc1ncc(-c2nc(C(F)(F)F)cn2Cc2ccc(Cl)s2)cc1Cl [Compound 1.152] | 5 (5=81-100%) | 5 (5=81-100%) | 1 (1=0-20%) | 2 (2=21-40%) | 5 (5=81-100%) | 5 (5=81-100%) | 3 (3=41-60%) | 1 (1=0-20%) |
| Cn1ccc(Cn2cc(C(F)(F)F)nc2-c2cnc(F)c(Cl)c2)n1 [Compound 1.153] | 5 (5=81-100%) | 5 (5=81-100%) | 5 (5=81-100%) | 4 (4=61-80%) | 5 (5=81-100%) | 5 (5=81-100%) | 5 (5=81-100%) | 5 (5=81-100%) |
